# Results taken from patent publication US12215112B2, “CD151 inhibitors” (ESFAM BIOTECH PTY LTD, priority 2020, dated 2025).
# Tested on: PC3 cells
# Test: xCELLigence RTCA real-time cell invasion assay (CIM plate, Matrigel) on PC3 prostate cancer cells
# Assay type: cell-based
# Settings: Homo sapiens, PC-3, compound 25 uM to 1 uM, cell index monitored for 72 hours, four-parameter dose-response curve, read-out: IC50, Effect of compounds on the invention on prostate cancer cells
# Method: The media antibiotics and serum were purchased from Invitrogen (Life Technologies). PC3 cells were purchased from ATCC (Granville, NSW, Australia). PC3 cells were expanded in cell culture T75 flasks with vented cap and then preserved in low passage number. The medium used for PC3 cells was RPMI (GlutaMAX) supplemented with 10% FCS and 1% penicillin/streptomycin (culture media). The cells were maintained at 37° C. in a humidified 95% (v/v) air/5% (v/v) CO2 environment and were grown up to 80% confluence.
# XCELLigence® real-time cell analysis (RTCA) instrument (ACEA Biosciences), 16-well ACEA CIM-Plates, 16-well ACEA E-Plat and assembly tool were purchased from ELITechGroup empowering IVD (Braeside, Australia). The Matrigel was purchased from Corning (Australia).
# To measure cell invasion under compound treatment the upper chamber of the CIM plate was coated with 5% Matrigel diluted in SF RPMI (20 μl) and incubated in a 37° C. tissue culture incubator for four hours. Using the assembly tool to support the chambers the lower chamber was filled with (160 μl) of culture media containing the compound in specific concertation from 25 uM to 1 uM and two controls (DMSO 0.1% and ESFAM 4C 10 uM) (see the schematic in FIG. 1). Once the upper chamber was placed on the top of the lower chamber it was loaded with (40 μl) serum-free (SF) RPMI containing the compound as previously stated. After one hour calibration in 37° C., plates were placed into the xCELLigence station, and the base-line electric impedance was measured to confirm that all wells and connections were working properly. In case of connection problem, the software automatically informs the researcher about the nature of the problem in the message section. Subsequently cells were trypsinized and upon harvesting and counting they were diluted in SF RPMI to desired density (3×10^4) and seeded (100 μl) in the wells. After 30 minutes of incubation in room-temperature to allow cell attachment the plates were loaded in the xCELLigence RTCA DP machine. The cell invasion was monitored in real-time for the duration of 72 hours. […]
# The xCELLigence system automatically monitored the electrical impedance value of each well and expressed as a cell index (CI) value for the duration of 72 hours. The data for treatments was automatically grouped as the mean±standard deviation. The software version used in these experiments is 1.2.1. The electronic record of the experimental data is automatically saved in file that cannot be altered or changed by the researcher.
# Statistical analysis was performed using Microsoft® Office EXCEL and GraphPad Prism 7. The IC50 was calculated from the four-parameter dose-response curve (log(inhibitor) vs. response-variable slopes). Where the row-data was inserted in GraphPad Prism 7 (Dose response x-log(dose)) and analysed for XY nonlinear regression (curve fit), dose response-inhibition, log(inhibitor) vs response variable slope (four parameters). For the IC90 calculation the log(IC50)=log(IC90)-(1/HillSlope)*log(9) equation was used in EXCEL based on the raw data extracted from xCELLigence system and the dose-response curve.
row,IC50,SMILES
1,1.65 µM,"COc1ccc(NC(=O)c2cc3nc(N4Cc5ccccc5C4)cc(-c4cn[nH]c4)n3n2)cc1 [Compound 54, 5-(isoindolin-2-yl)-N-(4-methoxyphenyl)-7-(1H-pyrazol-4-yl)pyrazolo[1,5-a]pyrimidine-2-carboxamide]"
2,7.86 µM,"CCOc1ccc(NC(=O)c2cc3nc(N4Cc5ccccc5C4)cc(-c4cn[nH]c4)n3n2)cc1 [Compound 55, N-(4-ethoxyphenyl)-5-(isoindolin-2-yl)-7-(1H-pyrazol-4-yl)pyrazolo[1,5-a]pyrimidine-2-carboxamide]"
3,2.83 µM,"CC(C)Oc1ccc(NC(=O)c2cc3nc(N4Cc5ccccc5C4)cc(-c4cn[nH]c4)n3n2)cc1 [Compound 56, 5-(isoindolin-2-yl)-N-(4-isopropoxyphenyl)-7-(1H-pyrazol-4-yl)pyrazolo[1,5-a]pyrimidine-2-carboxamide]"
4,2.59 µM,"COc1cccc(NC(=O)c2cc3nc(N4Cc5ccccc5C4)cc(-c4cnn(C)c4)n3n2)c1 [Compound 57, 5-(isoindolin-2-yl)-N-(3-methoxyphenyl)-7-(1-methyl-1H-pyrazol-4-yl)pyrazolo[1,5-a]pyrimidine-2-carboxamide]"
5,10.1 µM,"Cn1cc(-c2cc(N3Cc4ccccc4C3)nc3cc(C(=O)Nc4cccc(O)c4)nn23)cn1 [Compound 58, N-(3-hydroxyphenyl)-5-(isoindolin-2-yl)-7-(1-methyl-1H-pyrazol-4-yl)pyrazolo[1,5-a]pyrimidine-2-carboxamide]"
6,4.38 µM,"COc1cccc(NC(=O)c2cc3nc(N4Cc5ccccc5C4)cc(-c4c(C)nn(C)c4C)n3n2)c1 [Compound 59, 5-(isoindolin-2-yl)-N-(3-methoxyphenyl)-7-(1,3,5-trimethyl-1H-pyrazol-4-yl)pyrazolo[1,5-a]pyrimidine-2-carboxamide]"
7,7.39 µM,"Cc1nn(C)c(C)c1-c1cc(N2Cc3ccccc3C2)nc2cc(C(=O)Nc3cccc(O)c3)nn12 [Compound 60, N-(3-hydroxyphenyl)-5-(isoindolin-2-yl)-7-(1,3,5-trimethyl-1H-pyrazol-4-yl)pyrazolo[1,5-a]pyrimidine-2-carboxamide]"
8,3.68 µM,"COc1cccc(NC(=O)c2cc3nc(N4Cc5ccc(Cl)cc5C4)cc(-c4cn[nH]c4)n3n2)c1 [Compound 61, 5-(5-chloroisoindolin-2-yl)-N-(3-methoxyphenyl)-7-(1H-pyrazol-4-yl)pyrazolo[1,5-a]pyrimidine-2-carboxamide]"
9,5.22 µM,"O=C(Nc1cccc(O)c1)c1cc2nc(N3Cc4ccc(Cl)cc4C3)cc(-c3cn[nH]c3)n2n1 [Compound 62, 5-(5-chloroisoindolin-2-yl)-N-(3-hydroxyphenyl)-7-(1H-pyrazol-4-yl)pyrazolo[1,5-a]pyrimidine-2-carboxamide]"
10,4.65 µM,"COc1cccc(NC(=O)c2cc3nc(N4Cc5ccc(F)cc5C4)cc(-c4cn[nH]c4)n3n2)c1 [Compound 63, 5-(5-fluoroisoindolin-2-yl)-N-(3-methoxyphenyl)-7-(1H-pyrazol-4-yl)pyrazolo[1,5-a]pyrimidine-2-carboxamide]"
11,9.59 µM,"O=C(Nc1cccc(O)c1)c1cc2nc(N3Cc4ccc(F)cc4C3)cc(-c3cn[nH]c3)n2n1 [Compound 64, 5-(5-fluoroisoindolin-2-yl)-N-(3-hydroxyphenyl)-7-(1H-pyrazol-4-yl)pyrazolo[1,5-a]pyrimidine-2-carboxamide]"
12,19.7 µM,"COc1cccc(NC(=O)c2nn3c(-c4cn[nH]c4)cc(N4Cc5ccccc5C4)nc3c2C)c1 [Compound 66, 5-(isoindolin-2-yl)-N-(3-methoxyphenyl)-3-methyl-7-(1H-pyrazol-4-yl)pyrazolo[1,5-a]pyrimidine-2-carboxamide]"
13,5.94 µM,"Cc1c(C(=O)Nc2cccc(OC(F)(F)F)c2)nn2c(-c3cn[nH]c3)cc(N3Cc4ccccc4C3)nc12 [Compound 67, 5-(isoindolin-2-yl)-3-methyl-7-(1H-pyrazol-4-yl)-N-(3-(trifluoromethoxy)phenyl)pyrazolo[1,5-a]pyrimidine-2-carboxamide]"
14,5.76 µM,"Cc1c(C(=O)Nc2cccc(O)c2)nn2c(-c3cn[nH]c3)cc(N(C)Cc3ccccc3)nc12 [Compound 68, 5-(benzyl(methyl)amino)-N-(3-hydroxyphenyl)-3-methyl-7-(1H-pyrazol-4-yl)pyrazolo[1,5-a]pyrimidine-2-carboxamide]"
15,1.9 µM,"COc1cccc(NC(=O)c2nn3c(-c4cn[nH]c4)cc(N(C)Cc4ccccc4)nc3c2C)c1 [Compound 69, 5-(benzyl(methyl)amino)-N-(3-methoxyphenyl)-3-methyl-7-(1H-pyrazol-4-yl)pyrazolo[1,5-a]pyrimidine-2-carboxamide]"
16,5.87 µM,"Cc1c(C(=O)Nc2cccc(OC(F)(F)F)c2)nn2c(-c3cn[nH]c3)cc(N(C)Cc3ccccc3)nc12 [Compound 70, 5-(benzyl(methyl)amino)-3-methyl-7-(1H-pyrazol-4-yl)-N-(3-(trifluoromethoxy)phenyl)pyrazolo[1,5-a]pyrimidine-2-carboxamide]"
17,3.15 µM,"CC(C)c1c(C(=O)Nc2cccc(O)c2)nn2c(-c3cn[nH]c3)cc(N3Cc4ccccc4C3)nc12 [Compound 71, N-(3-hydroxyphenyl)-5-(isoindolin-2-yl)-3-isopropyl-7-(1H-pyrazol-4-yl)pyrazolo[1,5-a]pyrimidine-2-carboxamide]"
18,2.91 µM,"COc1cccc(NC(=O)c2nn3c(-c4cn[nH]c4)cc(N4Cc5ccccc5C4)nc3c2C(C)C)c1 [Compound 72, 5-(isoindolin-2-yl)-3-isopropyl-N-(3-methoxyphenyl)-7-(1H-pyrazol-4-yl)pyrazolo[1,5-a]pyrimidine-2-carboxamide]"
19,4.91 µM,"CC(C)c1c(C(=O)Nc2cccc(OC(F)(F)F)c2)nn2c(-c3cn[nH]c3)cc(N3Cc4ccccc4C3)nc12 [Compound 73, 5-(isoindolin-2-yl)-3-isopropyl-7-(1H-pyrazol-4-yl)-N-(3-(trifluoromethoxy)phenyl)pyrazolo[1,5-a]pyrimidine-2-carboxamide]"
20,1.34 µM,"CC(C)c1c(C(=O)Nc2cccc(O)c2)nn2c(-c3cn[nH]c3)cc(N(C)Cc3ccccc3)nc12 [Compound 74, 5-(benzyl(methyl)amino)-N-(3-hydroxyphenyl)-3-isopropyl-7-(1H-pyrazol-4-yl)pyrazolo[1,5-a]pyrimidine-2-carboxamide]"
21,5.68 µM,"COc1cccc(NC(=O)c2nn3c(-c4cn[nH]c4)cc(N(C)Cc4ccccc4)nc3c2C(C)C)c1 [Compound 75, 5-(benzyl(methyl)amino)-3-isopropyl-N-(3-methoxyphenyl)-7-(1H-pyrazol-4-yl)pyrazolo[1,5-a]pyrimidine-2-carboxamide]"
22,11.6 µM,"CC(C)c1c(C(=O)Nc2cccc(OC(F)(F)F)c2)nn2c(-c3cn[nH]c3)cc(N(C)Cc3ccccc3)nc12 [Compound 76, 5-(benzyl(methyl)amino)-3-isopropyl-7-(1H-pyrazol-4-yl)-N-(3-(trifluoromethoxy)phenyl)pyrazolo[1,5-a]pyrimidine-2-carboxamide]"
23,11 µM,"COc1cccc(NC(=O)c2nn3c(-c4cn[nH]c4)cc(N4Cc5ccc(F)cc5C4)nc3c2C(C)C)c1 [Compound 77, 5-(5-fluoroisoindolin-2-yl)-3-isopropyl-N-(3-methoxyphenyl)-7-(1H-pyrazol-4-yl)pyrazolo[1,5-a]pyrimidine-2-carboxamide]"
24,3.03 µM,"CC(=O)Nc1cccc(NC(=O)c2nn3c(-c4cn[nH]c4)cc(N4Cc5ccc(F)cc5C4)nc3c2C(C)C)c1 [Compound 78, N-(3-acetamidophenyl)-5-(5-fluoroisoindolin-2-yl)-3-isopropyl-7-(1H-pyrazol-4-yl)pyrazolo[1,5-a]pyrimidine-2-carboxamide]"
25,4.05 µM,"CC(=O)N1CCN(c2cccc(NC(=O)c3nn4c(-c5cn[nH]c5)cc(N5Cc6ccc(F)cc6C5)nc4c3C(C)C)c2)CC1 [Compound 79, N-(3-(4-acetylpiperazin-1-yl)phenyl)-5-(5-fluoroisoindolin-2-yl)-3-isopropyl-7-(1H-pyrazol-4-yl)pyrazolo[1,5-a]pyrimidine-2-carboxamide]"
26,1 µM,"CC(=O)N1CCN(c2ccc(NC(=O)c3nn4c(-c5cn[nH]c5)cc(N5Cc6ccc(F)cc6C5)nc4c3C(C)C)cc2)CC1 [Compound 80, N-(4-(4-acetylpiperazin-1-yl)phenyl)-5-(5-fluoroisoindolin-2-yl)-3-isopropyl-7-(1H-pyrazol-4-yl)pyrazolo[1,5-a]pyrimidine-2-carboxamide]"
